# From publication PMC6143478, “Lipophilic activated ester prodrug approach for drug delivery to the intestinal lymphatic system” (Journal of Controlled Release, 2018)
# Like-named read-outs stand apart in the source and are kept apart here.
# Columns and labels:
# DOHH2 cells = assay: Cell growth inhibition MTT assay, DOHH2; format: cell-based; settings: 72 h, RA 0.425 μM (0.625% × GI50 of RA)
# Protocol: (§1) DLBCL cell lines of DOHH2 and VAL were obtained from the Gene Regulation and RNA Biology group in University of Nottingham. Cell growth inhibition was assessed by MTT assay with a minor modification from previously reported methods [[25], [26], [27]]. Cells were seeded at a density of 2000 cells/well and allowed to adapt overnight. Test compounds were serial-diluted with dimethyl sulfoxide (DMSO) and spiked on the next day to yield 0.1% (v/v) DMSO. Control wells were treated with 0.1% DMSO vehicle alone. At the time of drug addition, separately prepared wells were processed for Tzero readings as previously described. The treated cells were incubated further for 72 h at 37 °C and processed for cell growth assessments.
# (§2) Assessment of statistical significance of differences between two groups was conducted by means of two-tailed unpaired t-test. Statistical significance among three or more groups was assessed by means of a one-way ANOVA followed by Tukey's multiple comparisons test. Statistical significance was declared when a p-value was lower than 0.05. […] Pharmacokinetic parameters were calculated by non-compartmental analysis using Phoenix WinNonlin 6.3 software (Pharsight, Mountain View, CA, USA).
# (§3) The anticancer effects of BEX and RA were assessed by MTT assay using DLBCL cell lines. The GI50 of each drug was firstly determined in each cell line. […]
# VAL cells = assay: Cell growth inhibition MTT assay, VAL; format: cell-based; settings: 72 h, RA 0.400 μM (0.625% × GI50 of RA)
# Protocol: as §1, §2, §3
# [1] = Plasma pharmacokinetics following oral administration in rats; format: in vivo, rat; settings: for AUC(0-inf) / AUC(0-t) / half-life / Cmax: male, Sprague Dawley, rat, plasma, po, 10 mg/kg, dose equivalent to 10 mg/kg BEX; for AUC(0-inf) / AUC(0-t) / half-life: BEX in plasma; for Cmax: Cmax of BEX in plasma, read-out: C0 or Cmax; for Foral: oral bioavailability of BEX, calculated on AUC0→t after i.v. BEX 2.5 mg/kg [33]
# Protocol: (§4) The protocols for pharmacokinetic and biodistribution experiments in this study were reviewed and approved by the University of Nottingham Ethical Review Committee in accordance with the Animals [Scientific Procedures] Act 1986. Male Sprague Dawley rats (Charles River Laboratories, UK) weighing 350–380 g were used. The animals were housed in the Bio Support Unit, University of Nottingham. Continuous lymph collection was performed according to a protocol approved by the Institutional Animal Care and Use Committee at Rutgers, The State University of New Jersey. Male Sprague Dawley rats (Envigo, Inc., NJ, USA) weighing 300–350 g were used for the continuous lymph collection. Animals were allowed free access to food and water and were acclimatised for at least 6 days prior to any procedures at both institutions in a controlled-temperature environment with 12 h light/dark cycles.
# Jugular vein cannulation surgery procedures were conducted under general anaesthesia for blood sampling. The animals were allowed two days to recover following surgery and were fasted up to 12 h prior to experiments with free access to drinking water. Formulations were prepared at concentrations equivalent to 2.5 mg/mL and 10 mg/mL of active drug for intravenous and oral administration, respectively. Solutions of the tested compounds in PEG400 were used as the dosing vehicle for intravenous administration. For oral administration, all prodrugs were administered as a solution in sesame oil to stimulate intestinal lymphatic transport. For oral administration of BEX and RA, oral gavage of sesame oil was administered prior to administration of BEX or RA solution in PEG400 due to low solubility of the two compounds in TG. In the lipid-free group BEX was administered orally formulated as a solution in PEG400. The formulations were administered by an oral gavage for oral administration or via the jugular vein cannula followed by 0.3 mL heparinised saline (50 IU/mL) for intravenous injection. Blood samples of 250 μL volume were collected from the cannula at pre-determined time points following administration. NaF (10 mg/mL) was used as an anticoagulant and inhibitor of esterase activity. Blood samples were centrifuged at 3000 g for 10 min to obtain plasma.
# (§5) A combination of protein precipitation and liquid-liquid extraction was applied to samples prior to HPLC injection. To 100 μL sample, 300 μL of acetonitrile was added for protein precipitation and then 300 μL of pH modifier was added when necessary (Supplementary Material Table S2). […] The organic layer was separated and evaporated under N2 gas. Reconstitution solvent (100 μL) was used as detailed in Supplementary Material Table S2 and 40 μL was injected into the HPLC-UV system. […] Therefore, storage and preparation of all samples were performed within the time frame and conditions of confirmed stability.
# (§6) The HPLC-UV system consisting of a separation module (Waters Alliance 2695) equipped with a UV detector (Waters 996) was used for analysis. Samples in the autosampler were maintained at 4 °C and the column at 40 °C. The stationary and mobile phases were used as specified in Supplementary Material Table S2. BEX and its prodrugs were detected at 259 nm and RA and its prodrugs at 357 nm.
# Assessment of statistical significance of differences between two groups was conducted by means of two-tailed unpaired t-test. Statistical significance among three or more groups was assessed by means of a one-way ANOVA followed by Tukey's multiple comparisons test. Statistical significance was declared when a p-value was lower than 0.05. The analyses were performed on GraphPad Prism version 7.01 (GraphPad Software, Inc., La Jolla, CA, USA). The concentrations that inhibited cell growth by 50% (GI50) were also calculated using GraphPad Prism and isobole plots were presented following a previously reported method to assess synergy between BEX and RA [28]. […]
# [2] = Biodistribution to mesenteric lymph nodes (MLN) and lymph following oral administration in rats; format: in vivo; settings: BEX analyte, dose equivalent to 10 mg/kg BEX, rat, in words
# Protocol: as §4
# Formulations were prepared as described in the above pharmacokinetic study and were delivered by an oral gavage. Animals were euthanised at pre-determined time points. Blood was collected from the posterior vena cava and lymph samples were taken from the mesenteric lymph duct. MLNs were dissected and collected as previously described. The MLNs were isolated from surrounding tissue with care not to compromise the integrity of the lymph nodes. The MLNs were homogenised (POLYTRON® PT 10–35 GT, Kinematica AG, Luzern, Switzerland) with 10 mg/mL NaF in water (1,2, w/v) on an ice bath prior to sample preparation for HPLC analysis.
# as §5, §6
# [3] = TG solubility measurement in sesame oil; format: physicochemical; settings: oil or lipid, thermodynamic from solid, 37 °C
# Protocol: Compounds were dissolved in fresh aliquots of sesame oil in excessive amounts in glass vials (in triplicate) and stirred using a magnetic stirring bar at 37 °C for 72 h. The mixture was then filtered by centrifugation in a Costar Spin-X Centrifuge Tube (Fisher Scientific, Loughborough, UK) at 2400 g for 5 min. The filtrates were analysed for concentration of the tested compounds by means of HPLC.
# human chylomicrons (CM) = assay: Ex vivo association with human plasma-derived chylomicrons; format: in vitro ADME; settings: in words
# Text: The protocol for preparation of human plasma-derived CM emulsion was approved by the Faculty of Medicine and Health Sciences Research Ethics Committee, Queens Medical Centre, Nottingham University Hospitals (BT12102015 CBS SoP). Healthy male volunteers of 19–40 years old and with body mass index of 18.5–25.0 were enrolled in the study after providing informed consent. The participants were excluded if any medication was used within one week prior to enrolment. On the morning of the study, participants received a high-fat meal (equivalent to a full English breakfast). Between 3 and 4 h following breakfast, 30 mL of blood was collected using heparinised tubes (Vacutainer® Blood Collection Tubes) and centrifuged (800 g, 10 min, 15 °C) to obtain plasma.
# CM separation was performed as previously reported with minor modifications. Briefly, KBr (0.57 g) was mixed with 4 mL of plasma to yield density of 1.1 g/mL. PBS with densities of 1.006, 1.019, and 1.063 g/mL were prepared by adding appropriate amounts of KBr. These PBS of different densities were layered on top of the plasma to build density gradient layers in polyallomer ultracentrifuge tubes. The samples were then centrifuged at 268,350 g for 35 min at 15 °C using an ultracentrifuge (SORVALL® TH-641 Rotor, Thermo Fisher Scientific, UK). Following ultracentrifugation, approximately 1 mL of the upper layer containing CM was collected. TG concentration of CM emulsion was assessed using the TG enzymatic kit (Sigma Aldrich, Dorset, UK). TG concentration of the emulsion was adjusted to 100 mg/dL by diluting with PBS of 1.006 g/mL density. The CM emulsion was stored at 4 °C until the association assay (˂24 h).
# The association of the compounds with artificial lipid particle emulsion and human CM was assessed using previously reported methodology with minor modifications. Briefly, 1 mL of artificial lipid particle or CM emulsions (TG concentration 100 mg/dL) was used for the association assay. The emulsion was spiked with stock solutions of tested compounds (in acetonitrile) to give a final concentration of 1.755 μM. The reaction mixtures were incubated at 37 °C for 1 h with magnetic stirring at 300 rpm. Following the incubation, density gradient ultracentrifugation was applied as described above to isolate the artificial lipid particles or CM associated with the tested compounds from the rest of the experimental medium. All experiments were conducted in quintuplicates or above.
SMILES,cell growth inhibition by BEX in conjunction with RA (DOHH2 cells),cell growth inhibition by BEX in conjunction with RA (VAL cells),AUC(0-inf) ([1]; p.o. (lipid-based)),AUC(0-t) ([1]; p.o. (lipid-based)),half-life ([1]; p.o. (lipid-based)),AUC(0-t) ([1]; p.o. (lipid-free)),half-life ([1]; p.o. (lipid-free)),"AUC(0-inf) ([1]; p.o. (lipid-free, PEG400))",Cmax ([1]; p.o. (lipid-based)),Cmax ([1]; p.o. (lipid-free)),Foral ([1]; p.o. (lipid-based)),Foral ([1]; p.o. (lipid-free)),"concentrations of BEX in intestinal lymphatics (MLNs, lymph) relative to plasma [2]",solubility at 72 h [3],difference in affinity for artificial emulsion versus natural human CM (human chylomicrons (CM))
"C=C(c1ccc(C(=O)O)cc1)c1cc2c(cc1C)C(C)(C)CCC2(C)C [BEX, bexarotene]",significantly and synergistically inhibited,significantly and synergistically inhibited,6620 ± 1310 ng·h/mL,5660 ± 1760 ng·h/mL,3.7 ± 1.2 h,4910 ± 1790 ng·h/mL,3 ± 0.7 h,5840 ± 2140 ng·h/mL,1100 ± 432 ng/mL,899 ± 338 ng/mL,30.6 ± 9.5%,26.5 ± 9.6%,lower than those in plasma,,
C=C(c1ccc(C(=O)OCC(=O)N(CC)CC)cc1)c1cc2c(cc1C)C(C)(C)CCC2(C)C [prodrug 20],,,,,,,,,,,,,,2670 ± 60 µg/mL,significant differences
